For experiment [1], the system named is luciferase reporter gene (fos-Luc) in CHO cells. Kind of experiment: ABA-induced luciferase expression using integrated CRISPR/CIP (PYL-VP80 / dCas9-NLS-ABI, fos-Luc reporter, sgRNAs). Format: cell-based. The conditions noted are these: CHO cells transfected for 24 hours; ABA 100 μM for 16 hours. The text has this: In one exemplary embodiment, ABA-induced ABI-PYL dimerization recruited a transcriptional activator to a DNA sequence targeted by sgRNAs and dCas9, and turn on the expression of a reporter gene. Several DNA plasmids were constructed for this purpose, including: (i) a DNA plasmid (PYL-VP80-ires-dCas9-NLS-ABI) encoding the transcriptional activator VP80 fused to PYL (PYL-VP80) and dCas9 with a nuclear localization signal (NLS) fused to ABI (dCas9-NLS-ABI); (ii) a luciferase reporter gene (fos-Luc) that contains the fos minimal promoter to give minimal background expression; and (iii) several sgRNA expression constructs to target the upstream region (within 1.5 kb) of the luciferase gene. […] Also, specific combinations of multiple sgRNAs increased the induced expression level. In other applications, the fold induction can be improved by optimizing the targeting region of sgRNAs, the combination of different sgRNAs, and/or the framework of fusion proteins, which may lead to a better positioning of the recruited transcription machinery relative to the transcription start site. […] Since histone posttranslational modifications are generally present in an expanded region instead of a specific location (e.g., a transcription start site), the precise positioning may not be as critical for epigenome editing.

The test system of experiment [2] is IL1RN locus in HEK293T cells. Briefly: ChIP-qPCR of FLAG-ABI-P300 and H3K27Ac at the IL1RN locus (dCas9-PYL-HA, FLAG-ABI-P300, IL1RN sgRNAs). Format: cell-based, human. On the procedure: To examine the recruitment of FLAG-ABI-P300, HEK293T cells were co-transfected with IL1RN sgRNAs, dCas9-PYL-HA and FLAG-ABI-P300 plasmids for 24 hours. Cells were then either treated or not treated with 100 μM ABA for another 24 hours before being harvested. Portions of the cell lysates were analyzed by using ChIP (with anti-FLAG antibody) and qPCR assays to quantify the level of FLAG-ABI-P300. […] To determine if the level of H3K27Ac changes in response to the FLAG-ABI-P300 localization, portions of the cell lysates produced in the above experiment were subjected to ChIP (using anti-H3K27Ac antibody) and qPCR assays to quantify the H3K27Ac enrichment.
Human embryonic kidney cell HEK293T (American Type Culture Collection, Manassas, Va.) was cultured in Dulbecco's modified Eagle's medium (DMEM) (Gibco) with 10% FBS (Atlanta Biologicals), 1× GlutaMax (Gibco, Thermo Fisher Scientific, Inc., Waltham, Mass.), and 1× penicillin/streptomycin (Pen/Strep; Gibco, Thermo Fisher Scientific, Inc., Waltham, Mass.). Cells (100,000/ml) were plated in 24-well or 10-cm cell culture plate the day before transfection. For each well of 24-well plate transfection, 500 ng of dCas9-PYL-HA, 420 ng of FLAG-ABI-P300, and a total amount of 200-ng mix of gRNAs, with a 50-ng per each gRNA, were mixed with 50×(v/w) Opti-MEM (Gibco, Thermo Fisher Scientific, Inc., Waltham, Mass.), then incubate with the same volume of 3 μg PEI-Opti-MEM solution for 20 minutes at room temperature. Then, 100 μL of PEI-combined plasmids were added to every single well of 24-well plate and cultured for 24 hours before experiments were performed. For a 10 cm plate, 1 mL of PEI-combined plasmids were needed. After six hours transfection, cells were washed and incubated for another 1-72 hours before experiments were performed.
ChIP protocol was optimized from the method in Molecular Cloning, Fourth edition (Cold Spring Harbor Laboratory Press, 2012). In brief, cells cultured in a 10-cm plate were fixed with 1 mL of cross-linking buffer (0.1 M NaCl, 1 mM EDTA, 0.5 mM EGTA, 50 mM HEPES and 11% formaldehyde), and shaken in room temperature for 15 minutes. Then 1.1 mL of 1.25 M glycine was added to the solution to stop crosslinking. After washing three times in ice cold PBS, cells were scraped and suspended in 10 mL of lysis buffer (50 mM HEPES, 140 mM NaCl, 1 mM EDTA, 10% Glycerol, 0.5% NP40, 0.25% Triton X-100), and rocked at 4° C. for 10 minutes. Cells were centrifuged at 1,000×g for 10 minutes and were resuspended in protein extraction buffer (200 mM NaCl, 1 mM EDTA, 0.5 mM EGTA, 10 mM Tris). Nuclei were pelleted by centrifuging at 1,000×g for 15 minutes at 4° C., resuspended in 2 mL of chromatin extraction buffer (1 mM EDTA, 0.5 mM EGTA, 10 mM Tris), and divided into six sonication tubes. Then, the samples were sonicated for 24 cycles at a 30 seconds on/30 seconds off protocol. Then samples were moved to a new centrifuge tube and insoluble debris were removed by centrifuge at 2,000×g for 20 minutes at 4° C. 10% volume of samples were stored at −80° C. as 10% input control. […] Then, sample-bound beads were washed eight times with RIPA buffer (50 mM HEPES, 1 mM EDTA, 1% NP40, 0.7% DOC, 0.5 M LiCl, 1× protease inhibitor complete cocktail), and finally re-suspended in TE (pH 8.0) buffer to wash. Then TE buffer was removed completely, 50 μL of elution buffer (10 mM Tris, 1 mM EDTA, 1% SDS) was added and the samples were incubated for 10 minutes at 65° C. and rocked every two minutes. The liquid was collected, 120 μL of elution buffer was added, and the samples were incubated at 65° C. overnight. Samples of 10% input were incubated with […] elution buffer at 65° C. overnight, too. To remove histones, washing buffer (140 μL of TE buffer, 3 μL of 20 mg/ml glycogen and 7 μL of 10 mg/ml Proteinase K) was added and incubated two hours at 37° C. Then ChIP samples were purified with phenol:chloroform:isoamyl alcohol (25:24:1) twice, then purified aqueous in chloroform. […]
(Real-time PCR tracks product formation cycle by cycle.)

Setting [3] is: IL1RN locus, time course after ABA addition.

As for `CC1=CC(=O)CC(C)(C)[C@@]1(O)/C=C/C(C)=C\C(=O)O` [ABA, abscisic acid], the luciferase expression result in experiment [1] is “luciferase expression was induced”. Moreover, the “FLAG-ABI-P300 level at the IL1RN locus” value in experiment [2] (100 μM ABA for 24 hours vs not treated, anti-FLAG ChIP) is “increase in FLAG-ABI-P300 level”. In addition, the “H3K27Ac levels at the IL1RN locus” value in experiment [2] (24 h after ABA addition (100 μM) vs not treated, anti-H3K27Ac ChIP) was “H3K27Ac levels increase”. Also, the “stability of H3K27Ac at the IL1RN locus after ABA removal” value in experiment [2] (ABA for 12, 24 or 48 hours, then washed) is recorded as “the longer cells were treated with ABA, the slower H3K27Ac was removed after washing”. For the same compound, in experiment [2] (ABA for 12, 24 or 48 hours, then washed with non-ABA media), the “FLAG-ABI-P300 level at the IL1RN locus after washing to remove ABA” value was “rapidly decreases to a near background level within one hour following washing”. In addition, in experiment [2] (setting [3]), the “time at which the level of H3K27Ac begins to rise” value is “one hour after ABA addition” and the “time until which H3K27Ac continues to increase” value was 48 h. Further, in experiment [2] (time course after ABA addition), the “time at which FLAG-ABI-P300 reaches a maximal level at the IL1RN locus” value turned out to be 12 h and the “time of FLAG-ABI-P300 recruitment to the IL1RN locus after ABA addition” value was “Within one hour”.

For the origin of these results see patent publication US20190256827A1, “EPIGENOME EDITING SYSTEMS AND METHODS” (STC.UNM, priority 2017, published 2019).
